# Results taken from US20230048678A1, “ICAN DERIVATIVES FOR ANTIFUNGAL USE” (DEBRECENI EGYETEM, priority 2019, published 2023).
# Entries after “also recorded” stand apart in the source; their conditions may differ.
# Experiments:
# C. albicans isolate 3666 [1] = assay: Murine model of acute invasive candidiasis, survival; assay type: in vivo, BALB/c mice; details: neutropenic mice, 3×10^4 cfu/mouse iv, 5 mg/kg ip once daily for 5 days, olive oil/water emulsion; untreated controls 0%, P<0.05
# Experimental: In the model of acute invasive candidiasis, neutropenic mice were infected via the lateral tail vein with C. albicans isolate 3666 (3×10^4 cfu/mouse) to establish an acute infection. It is well understood that any other fungal pathogens of animals can be used for this purpose. In the example provided herein all untreated control animals died within 6 days. DIMICAN (5 mg/kg) prolonged the survival period of animals compared to non-treated infected controls (P<0.05; 80 versus 0% survivors at day 7 post-infection; FIG. 3a). It should be noted, however, that DIMICAN was administered as intraperitoneal injection which contained DIMICAN as an emulsion in reagent grade olive oil and water. While emulsions are a kind of preferred options in the preparations of the invention, preparing alternative or improved formulations are within the skills of a person skilled in the art.
# We used 10-12 week-old female BALB/c mice for all experiments. […] Mice were given food and water ad libitum and were monitored daily. […]
# (§1) Survival effects were analyzed by the Kaplan—Meier log-rank test. Kidney burden was analysed using a Kruskal—Wallis test with Dunn's posttest for multiple comparisons [Foldi R 2012, Kovacs R 2014].
# C. albicans isolate 3666 [2] = assay: Murine model, kidney fungal burden; assay type: in vivo, BALB/c mice; details: immunosuppressed mice, 10^4 cfu/mouse iv
# Experimental: During an independent in vivo experiment mice were infected intravenously with C. albicans isolate 3666. The infected mice were euthanized 2 or 6 days after infection (n=5 and 6 mice/time point, respectively), as disclosed herein, to determine the fungal burdens in the kidneys. Kidney burden was analyzed using a Kruskal-Wallis test with Dunn's posttest for multiple comparisons [Foldi R 2012, Kovacs R 2014]. Results of fungal burden experiments are shown on FIGS. 3b and c. […] It is well seen in […], that on day 6. the fungal burden increased by an order of magnitude (from −10^5 to −10^6) in the case of the untreated mice, while in the case of DIMICAN it remained the same as it was on day 2. The same is valid for AMB.
# We used 10-12 week-old female BALB/c mice for all experiments. Mice were immunosuppressed using 150 mg/kg intraperitoneal (ip) cyclophosphamide dose (4 days prior to infection) and 100 mg/kg ip cyclophosphamide dose (1 day prior to infection; 2 and 5 days after infection) [Spellberg B, 2005]. All mice received ceftazidime (5 mg/day subcutaneously) from days 0 to 6 after infection. Mice were given food and water ad libitum and were monitored daily. The animals were maintained in accordance with the Guidelines for the Care and Use of Laboratory Animals, and the experiments were approved by the Animal Care Committee of the University of Debrecen, Debrecen, Hungary (permission no. 12/2014).
# Mice were infected via the lateral tail vein with C. albicans 3666 bloodstream isolate. In the lethality (10 mice/group) and fungal tissue burden experiments (6 mice/group) the infectious doses were 3×10^4 and 10^4 cfu/mouse, respectively. These doses led to 100% and 0% mortality, respectively by day 6 after infection among untreated mice. Inoculum density was confirmed by plating serial dilutions onto Sabouraud dextrose agar (SDA) plates.
# AMB (Fungizone, commercial preparation) and DIMICAN treatment in a 0.5-ml bolus was started 1 h after infection. The doses were 1 mg AMB and 5 mg DIMICAN (in olive oil/water (o/w) emulsion) per kg body weight. All antifungals were administered intraperitoneally once daily for 5 consecutive days.
# Infected mice were euthanized 2 or 6 days after infection (n=6 mice/time point) to determine the fungal burden in the kidney. […] Aliquots of 0.1 ml of the undiluted and diluted homogenates were plated onto SDA, and the colony count was determined after 48 h. Colony-forming units (CFUs) were determined after 48 h of incubation at 37° C. and results were expressed as cfus/g tissue [Spellberg B, 2005]. […]
# as §1
# human cell cultures = details: from [Nagy M 2018, Nagy Z L; cited from earlier work
# [3] = tested on: C. parapsilosis ATCC 22019; assay: CLSI broth microdilution susceptibility (Table 1); assay type: cell-based; details: 48 h, 35° C.
# Experimental: (§2) ICAN has 3 key moieties, namely the amino, naphthalene and isonitrile. To find out which ones of them are essential for the antifungal behavior and to design more efficient derivatives, comparative studies were carried out, where one of the moieties was exchanged or eliminated. All ICAN derivatives were tested against C. albicans SC5314, C. krusei ATCC 6258 and C. parapsilosis ATCC 22019. The antifungal agents were dissolved in 100% DMSO and diluted further in RPMI-1640 (with L-glutamine but without bicarbonate) and buffered to pH 7.0 with 0.165 M morpholinopropanesulfonic acid (MOPS). MICs were read visually after 48-h incubation at 35° C. using the partial (50%) inhibition (for ICAN derivatives) (PI) and total inhibition (for AMB and ICAN derivatives) (TI) criteria. MICs were determined at least twice.
# (§3) The tested C. albicans, C. tropicalis, C. parapsilosis, C. glabrata and C. krusei ATCC strains and clinical isolates are listed in Table 2. MICs were determined according to the CLSI M27-A3 [22]. Antifungal agents were dissolved in 100% DMSO and diluted further in RPMI-1640 (with L-glutamine but without bicarbonate) (Sigma, Budapest, Hungary), and buffered to pH 7.0 with 0.165 M morpholinopropanesulfonic acid (MOPS; Sigma, Budapest, Hungary). The final concentration ranges used for AMB and ICAN derivatives were 0.125 to 4 μg/ml and 0.04 to 20 μg/ml, respectively. Yeast cell suspensions were prepared in RPMI 1640 medium and were adjusted to give a final inoculum concentration of 0.5×10^3 to 2.5×10^3 cells/ml. MICs were read visually after 48-h incubation at 35° C. using the partial (50%) inhibition (for ICAN derivatives) (PI) and total inhibition (for AMB and ICAN derivatives) (TI) criteria. MICs were determined at least twice. For amphotericin B isolates with MIC values of ≤2 mg/L were considered wild-types. [Pfaller M A, 2012]
# C. albicans SC5314 = assay: CLSI broth microdilution susceptibility (Table 1); assay type: cell-based; details: 48 h, 35° C.
# Experimental: as §2, §3
# C. krusei ATCC 6258 = assay: CLSI broth microdilution susceptibility (Table 1); assay type: cell-based; details: 48 h, 35° C.
# Experimental: as §2, §3
structure (smiles),measurement,setting,value
"[C-]#[N+]c1cccc2c(N(C)C)cccc12 [DIMICAN, N,N-dimethyl-1-amino-5-isocyanonaphthalene]",survivors at day 7 post infection,C. albicans isolate 3666 [1],80%
same,"effect on kidney fungal burden, six days after infection","C. albicans isolate 3666 [2]; 5 mg/kg DIMICAN or 1 mg/kg AMB ip once daily for 5 days, p<0.05 (AMB), p<0.001 (DIMICAN) vs control",efficient; also recorded: significantly lower fungal burden
same,"effect on kidney fungal burden, two days after infection","C. albicans isolate 3666 [2]; 5 mg/kg DIMICAN or 1 mg/kg AMB ip once daily, P>0.05 vs control",no effect on fungal load
same,cytotoxic effect,human cell cultures,no cytotoxic effect
same,MICPI,[3]; partial (50%) inhibition,0.15 µg/mL
same,MICTI,[3]; total inhibition,0.6 µg/mL
same,MICPI,C. albicans SC5314; partial (50%) inhibition,≤0.04 µg/mL
same,MICTI,C. albicans SC5314; total inhibition,0.6 µg/mL
same,MICPI,C. krusei ATCC 6258; partial (50%) inhibition,0.15 µg/mL
same,MICTI,C. krusei ATCC 6258; total inhibition,0.3 µg/mL
